Experimental data: patent US9409866B2, “Pyridine-2-amides useful as CB2 agonists” (Hoffmann-La Roche Inc., priority 2012, dated 2016)
Where two headings read alike, the source gives them in different places.

Columns and labels:
[1] = target: human CB2 receptors (Homo sapiens (Human), UniProt P34972); assay: functional cAMP assay, CHO cells expressing human CB2; assay type: cell-based
Summary of the method: (§1)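 CHO cells expressing human CB1 or CB2 were preincubated 30 min at 30 °C in Krebs Ringer bicarbonate with 1 mM IBMX, then exposed to compound 30 min at 30 °C. cAMP quantified by TR-FRET competition (Alexa700 antibody/ruthenium-cAMP) against a 10 μM–0.13 nM standard curve; EC50 derived.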

[2] = target: human CB1 receptors (Homo sapiens (Human), UniProt P21554); assay: functional cAMP assay, CHO cells expressing human CB1; assay type: cell-based
Chain of human CB1 receptors (P21554 whole entry): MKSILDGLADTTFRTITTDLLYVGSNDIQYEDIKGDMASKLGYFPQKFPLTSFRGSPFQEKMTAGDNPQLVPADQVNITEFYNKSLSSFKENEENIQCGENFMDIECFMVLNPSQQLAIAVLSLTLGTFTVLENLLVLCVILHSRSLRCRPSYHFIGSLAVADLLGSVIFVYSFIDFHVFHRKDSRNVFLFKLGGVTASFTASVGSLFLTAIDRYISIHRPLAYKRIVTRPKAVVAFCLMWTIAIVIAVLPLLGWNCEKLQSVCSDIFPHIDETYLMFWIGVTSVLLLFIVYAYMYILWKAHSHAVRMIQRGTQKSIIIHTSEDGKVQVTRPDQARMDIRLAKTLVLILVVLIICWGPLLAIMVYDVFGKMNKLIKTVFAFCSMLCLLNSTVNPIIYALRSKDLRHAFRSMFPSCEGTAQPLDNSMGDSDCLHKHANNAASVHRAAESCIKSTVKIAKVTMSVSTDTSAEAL
Summary of the method: as §1

[3] = Human CB1 EC50 (uM), functional cAMP assay, CHO cells expressing human CB1
[4] = functional cAMP assay, CHO cells expressing human CB1, read-out: Human CB1 EC50

Chain of human CB2 receptors (P34972 whole entry): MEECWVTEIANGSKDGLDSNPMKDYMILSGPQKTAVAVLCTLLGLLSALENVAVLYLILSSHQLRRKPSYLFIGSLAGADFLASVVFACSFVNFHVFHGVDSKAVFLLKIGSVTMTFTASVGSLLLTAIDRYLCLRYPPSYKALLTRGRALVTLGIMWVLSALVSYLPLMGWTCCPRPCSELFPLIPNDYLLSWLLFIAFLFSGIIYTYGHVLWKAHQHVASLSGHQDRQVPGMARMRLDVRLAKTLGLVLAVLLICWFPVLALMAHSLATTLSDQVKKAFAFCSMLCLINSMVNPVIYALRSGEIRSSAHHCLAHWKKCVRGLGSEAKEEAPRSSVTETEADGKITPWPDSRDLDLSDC

Row | Compound | EC50 ([1]; read-out: Human CB2 EC50) [µM] | EC50 [2, 4] [µM] | other results
1 | CC(CC(N)=O)(NC(=O)c1cc(OCCF)c(C2CC2)cn1)C1CC1 (single isomer, unassigned) [Example 270, N-[4-amino-2-cyclopropyl-4-oxobutan-2-yl]-5-cyclopropyl-4-(2-fluoroethoxy)pyridine-2-carboxamide] |  |  | EC50 ([1]; Human CB2 EC50 (uM)): 0.0689 µM; EC50 [2, 3]: > 10 µM
2 | Cc1nc(C(C)(CS(C)(=O)=O)NC(=O)c2cc(O[C@@H](C)C(F)(F)F)c(C3(F)CCC3)cn2)no1 (stereo partly drawn) [Example 130, 5-(1-fluorocyclobutyl)-N-[2-(5-methyl-1,2,4-oxadiazol-3-yl)-1-methylsulfonylpropan-2-yl]-4-[(2S)-1,1,1-trifluoropropan-2-yl]oxypyridine-2-carboxamide] | 0.0234 | > 10 | 
3 | CC(C)[C@](C)(CO)NC(=O)c1cc(Cc2ccc(F)cc2)c(Cl)cn1 [Example 15, 5-Chloro-4-(4-fluoro-benzyl)-pyridine-2-carboxylic acid ((R)-1-hydroxymethyl-1,2-dimethyl-propyl)-amide] | 0.0058 | > 10 | 
4 | CC(C)(C)C(NC(=O)c1cc(OCC(F)(F)F)c(C2CC2)cn1)C(=O)N1CCC1 (stereo not shown) [Example 196, N-[1-(azetidin-1-yl)-3,3-dimethyl-1-oxobutan-2-yl]-5-cyclopropyl-4-(2,2,2-trifluoroethoxy)pyridine-2-carboxamide] | 0.0012 | > 10 | 
5 | O=C(NCC1(O)CCCCC1)c1cc(OCC2CC2)c(C2CC2)cn1 [Example 57, 5-Cyclopropyl-4-cyclopropylmethoxy-pyridine-2-carboxylic acid (1-hydroxy-cyclohexylmethyl)-amide] | 0.013 | > 10 | 
6 | Cc1nnc(C(C)(CC2CC2)NC(=O)c2cc(O[C@@H](C)C(F)(F)F)c(C3(F)COC3)cn2)o1 (stereo partly drawn) [Example 176, N-[1-cyclopropyl-2-(5-methyl-1,3,4-oxadiazol-2-yl)propan-2-yl]-5-(3-fluorooxetan-3-yl)-4-[(2S)-1,1,1-trifluoropropan-2-yl]oxypyridine-2-carboxamide] | 0.443 | > 10 | 
7 | Cc1nc(C(C)(COCc2ccccc2)NC(=O)c2cc(OCC(F)(F)F)c(C3CC3)cn2)no1 (stereo not shown) [Example 112, 5-cyclopropyl-N-[2-(5-methyl-1,2,4-oxadiazol-3-yl)-1-phenylmethoxypropan-2-yl]-4-(2,2,2-trifluoroethoxy)pyridine-2-carboxamide] | 0.0436 | > 10 | 
8 | CC(C)C[C@H](NC(=O)c1cc(OCC(F)(F)F)c(C2CC2)cn1)C(N)=O [Example 52, 5-Cyclopropyl-4-(2,2,2-trifluoro-ethoxy)-pyridine-2-carboxylic acid ((S)-1-carbamoyl-3-methyl-butyl)-amide] | 0.0778 | > 10 | 
9 | NC(=O)CC1(NC(=O)c2cc(OCC3CC3)c(N3CC(F)(F)C3)cn2)CS(=O)(=O)C1 [Example 267, N-[3-(2-amino-2-oxoethyl)-1,1-dioxothietan-3-yl]-4-(cyclopropylmethoxy)-5-(3,3-difluoroazetidin-1-yl)pyridine-2-carboxamide] | 0.0105 | > 10 | 
10 | NC(=O)[C@H](CC1CC1)NC(=O)c1cc(OCC2CC2)c(Cl)cn1 [Example 4, 5-Chloro-4-cyclopropylmethoxy-pyridine-2-carboxylic acid ((S)-1-carbamoyl-2-cyclopropyl-ethyl)-amide] | 0.115 | > 10 | 
11 | NC(=O)[C@@H]1CC(F)(F)CN1C(=O)c1cc(OCC2CC2)c(C2CC2)cn1 [Example 114, (2S)-1-[5-cyclopropyl-4-(cyclopropylmethoxy)pyridine-2-carbonyl]-4,4-difluoropyrrolidine-2-carboxamide] | 1 | > 10 | 
12 | Cc1nc(C(C)(CC2CC2)NC(=O)c2cc(O[C@@H](C)C(F)(F)F)c(C3(F)COC3)cn2)no1 (stereo partly drawn) [Example 142, N-[1-cyclopropyl-2-(5-methyl-1,2,4-oxadiazol-3-yl)propan-2-yl]-5-(3-fluorooxetan-3-yl)-4-[(2S)-1,1,1-trifluoropropan-2-yl]oxypyridine-2-carboxamide] | 0.0041 | > 10 | 
13 | CC(C)(C)C(NC(=O)c1cc(OCC2CC2)c(N2CC(F)(F)C2)cn1)C(N)=O (stereo not shown) [Example 257, N-(1-amino-3,3-dimethyl-1-oxobutan-2-yl)-4-(cyclopropylmethoxy)-5-(3,3-difluoroazetidin-1-yl)pyridine-2-carboxamide] | 0.003 | > 10 | 
14 | C[C@H](Oc1cc(C(=O)NC(C(=O)N2CCC23COC3)C(C)(C)C)ncc1C1CC1)C(F)(F)F (stereo partly drawn) [Example 204, 5-cyclopropyl-N-[3,3-dimethyl-1-(6-oxa-1-azaspiro[3.3]heptan-1-yl)-1-oxobutan-2-yl]-4-[(2S)-1,1,1-trifluoropropan-2-yl]oxypyridine-2-carboxamide] | 0.0646 | > 10 | 
15 | CNC(=O)CC(C)(NC(=O)c1cc(O[C@@H](C)C(F)(F)F)c(C2CC2)cn1)C1CC1 (stereo partly drawn) [Example 247, 5-cyclopropyl-N-[2-cyclopropyl-4-(methylamino)-4-oxobutan-2-yl]-4-[(2S)-1,1,1-trifluoropropan-2-yl]oxypyridine-2-carboxamide] | 0.0193 | > 10 | 
16 | Cc1nnc(C(NC(=O)c2cc(O[C@@H](C)C(F)(F)F)c(C3CC3)cn2)C2(C)COC2)o1 (stereo partly drawn) [Example 246, 5-cyclopropyl-N-[(5-methyl-1,3,4-oxadiazol-2-yl)-(3-methyloxetan-3-yl)methyl]-4-[(2S)-1,1,1-trifluoropropan-2-yl]oxypyridine-2-carboxamide] | 0.186 | > 10 | 
17 | CC(C)CC(C)(CO)NC(=O)c1cc(OCC2CC2)c(Cl)cn1 (stereo not shown) [Example 25, 5-Chloro-4-cyclopropylmethoxy-pyridine-2-carboxylic acid (1-hydroxymethyl-1,3-dimethyl-butyl)-amide] | 0.0119 | > 10 | 
18 | CNC(=O)C(C)(NC(=O)c1cc(OCC(F)(F)F)c(C2CC2)cn1)c1noc(C)n1 (stereo not shown) [Example 149, 5-cyclopropyl-N-[1-(methylamino)-2-(5-methyl-1,2,4-oxadiazol-3-yl)-1-oxopropan-2-yl]-4-(2,2,2-trifluoroethoxy)pyridine-2-carboxamide] | 0.0127 | > 10 | 
19 | Cc1nc(C(C)(NC(=O)c2cc(O[C@@H](C)C(F)(F)F)c(C3CC3)cn2)C2CC2)no1 (single isomer, unassigned; epimer b) [Example 69] | 0.00025 | 0.015 | 
20 | NC(=O)CC1(NC(=O)c2cc(OCC(F)(F)F)c(C3CCC3)cn2)CS(=O)(=O)C1 [Example 299, N-[3-(2-amino-2-oxoethyl)-1,1-dioxothietan-3-yl]-5-cyclobutyl-4-(2,2,2-trifluoroethoxy)pyridine-2-carboxamide] | 0.002 | > 10 | 
21 | CC(CF)Oc1cc(C(=O)NC(C)(CC(N)=O)C2CC2)ncc1C1CC1 (single isomer, unassigned) [Example 302, N-(4-amino-2-cyclopropyl-4-oxobutan-2-yl)-5-cyclopropyl-4-(1-fluoropropan-2-yloxy)picolinamide] |  |  | EC50 ([1]; Human CB2 EC50 (uM)): 0.001 µM; EC50 [2, 3]: 0.869 µM
22 | CCC[C@@](C)(CO)NC(=O)c1cc(OCC2CC2)c(Cl)cn1 [Example 37, (−)-5-Chloro-4-cyclopropylmethoxy-pyridine-2-carboxylic acid (1-hydroxymethyl-1-methyl-butyl)-amide] | 0.0167 | > 10 | 
23 | C[C@H](Oc1cc(C(=O)NC(C)(CC(N)=O)C2CC2)ncc1C1CC1)C(F)(F)F (stereo partly drawn) [Example 248, N-(4-amino-2-cyclopropyl-4-oxobutan-2-yl)-5-cyclopropyl-4-[(2S)-1,1,1-trifluoropropan-2-yl]oxypyridine-2-carboxamide] | 0.0009 | > 10 | 
24 | CC(C)(O)CNC(=O)c1cc(OCC2CC2)c(C2CC2)cn1 [Example 59, 5-Cyclopropyl-4-cyclopropylmethoxy-pyridine-2-carboxylic acid (2-hydroxy-2-methyl-propyl)-amide] | 0.0816 | > 10 | 
25 | Cc1nnc(C(NC(=O)c2cc(OCC(F)(F)F)c(C3CC3)cn2)C2(C)COC2)o1 (stereo not shown) [Example 245, 5-cyclopropyl-N-[(5-methyl-1,3,4-oxadiazol-2-yl)-(3-methyloxetan-3-yl)methyl]-4-(2,2,2-trifluoroethoxy)pyridine-2-carboxamide] | 0.997 | > 10 | 
26 | Cc1nc(C(C)(NC(=O)c2cc(O[C@@H](C)C(F)(F)F)c(C3(F)COC3)cn2)C2CC2)no1 (stereo partly drawn) [Example 144, N-[1-cyclopropyl-1-(5-methyl-1,2,4-oxadiazol-3-yl)ethyl]-5-(3-fluorooxetan-3-yl)-4-[(2S)-1,1,1-trifluoropropan-2-yl]oxypyridine-2-carboxamide] | 0.0141 | > 10 | 
27 | NC(=O)CC1(NC(=O)c2cc(OCC(F)(F)F)c(N3CC(F)(F)C3)cn2)COC1 [Example 223, N-[3-(2-amino-2-oxoethyl)oxetan-3-yl]-5-(3,3-difluoroazetidin-1-yl)-4-(2,2,2-trifluoroethoxy)pyridine-2-carboxamide] | 0.166 | > 10 | 
28 | Cc1nc(C(C)(CC2CC2)NC(=O)c2cc(OCC(F)F)c(C3CC3)cn2)no1 (single isomer, unassigned) [Example 155, 5-cyclopropyl-N-[1-cyclopropyl-2-(5-methyl-1,2,4-oxadiazol-3-yl)propan-2-yl]-4-(2,2-difluoroethoxy)pyridine-2-carboxamide] |  |  | EC50 ([1]; Human CB2 EC50 (uM)): 0.0058 µM; EC50 ([2]; read-out: Human CB1 EC50, functional cAMP assay, CHO cells expressing human CB1): > 10 µM
29 | Cc1nc(C(C)(CS(C)(=O)=O)NC(=O)c2cc(OCC(F)(F)F)c(C3(F)COC3)cn2)no1 (single isomer, unassigned) [Example 132, 5-(3-fluorooxetan-3-yl)-N-[2-(5-methyl-1,2,4-oxadiazol-3-yl)-1-methylsulfonylpropan-2-yl]-4-(2,2,2-trifluoroethoxy)pyridine-2-carboxamide] | 0.333 |  | EC50 [2]: > 10 µM
